From PubChem BioAssay (NCI) come the findings set out here.

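Method: 48-hour compound exposure of cells in 96-well plates, five concentrations, linear interpolation of endpoints. The concentration for 50% growth inhibition is given as GI50. TGI marks complete inhibition of growth.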 A value given as a limit tells only on which side of the number the result lay.

The term GI50 denotes the concentration giving 50% growth inhibition. One may read the TGI as the concentration giving total growth inhibition. A higher TGI goes with lower sensitivity of the cells.

Some test systems named below: CAKI-1 renal; IGROV1 ovarian; K-562 leukemia; OVCAR-5 ovarian; RPMI-8226 leukemia; SF-295 CNS; SF-539 CNS; SR leukemia; A498 renal; HOP-92 NSCLC.
What all share (assay): DTP human tumour cell line panel, 48 h

In the case of `CCOC(=O)c1cn(C)c2c(OC)c3ccccc3c(OC)c2c1=O`, the GI50 is 29.7 µM with CAKI-1 renal; 52.6 µM in the assay with IGROV1 ovarian; 36.4 µM with K-562 leukemia; 30.9 µM in the assay on OVCAR-5 ovarian; 23.8 µM in the assay on RPMI-8226 leukemia; 21.4 µM in the assay on SF-295 CNS. Further, the GI50 with SF-539 CNS is 34 µM; with SR leukemia, 28.5 µM. In addition, the TGI in the assay with CAKI-1 renal is 76.8 µM; in the assay on IGROV1 ovarian, greater than 100 µM; in the assay on K-562 leukemia, greater than 100 µM; with OVCAR-5 ovarian it was greater than 100 µM; in the assay on RPMI-8226 leukemia it was greater than 100 µM; in the assay with SF-295 CNS, 55.2 µM. Also, the TGI is greater than 100 µM in the assay on SF-539 CNS and 88.6 µM in the assay on SR leukemia.

For the molecule `CC(=O)C1(C(=O)C(=[N+]=[N-])S(=O)(=O)c2ccccc2)CC1`, the concentration for total growth inhibition (TGI) in the assay on IGROV1 ovarian, with K-562 leukemia, in the assay with OVCAR-5 ovarian, with RPMI-8226 leukemia, in the assay with SF-295 CNS and with SF-539 CNS was greater than 100 µM each time. Also, in the assay on SR leukemia, the TGI is greater than 100 µM.

As to `Cc1ccc(S(=O)(=O)Nc2ccccc2C(C)(C)C)cc1`, the TGI is 59.7 µM in the assay on A498 renal; 59.3 µM in the assay on CAKI-1 renal; greater than 100 µM in the assay on IGROV1 ovarian; 50.1 µM with K-562 leukemia; greater than 100 µM in the assay on OVCAR-5 ovarian; 54.3 µM with RPMI-8226 leukemia. For the same molecule, the TGI in the assay with SF-295 CNS came to 32 µM; with SF-539 CNS it was 33.9 µM.

As to `Cc1ccc(-n2c3nc(=O)n(C)c(=O)c-3nc3ccccc32)c(C)c1`, the TGI with CAKI-1 renal was 57.7 µM; with IGROV1 ovarian, 36.4 µM; with K-562 leukemia, 40.6 µM; in the assay on OVCAR-5 ovarian it was 32.7 µM; in the assay on RPMI-8226 leukemia, 42.4 µM; with SF-295 CNS, 22.9 µM. Further, the total growth inhibition concentration (TGI) with SF-539 CNS was determined as 26.4 µM.

Consider `Nc1nc(Cl)c2ncn(Cc3ccc(C45CC6CC(CC(C6)C4)C5)c(OCc4cc(F)c(F)cc4F)c3)c2n1`, for which the GI50 was 8.78 µM in the assay on A498 renal; 2.37 µM with CAKI-1 renal; 2.02 µM in the assay on HOP-92 NSCLC; 2.77 µM in the assay with IGROV1 ovarian; 13.4 µM in the assay with OVCAR-5 ovarian; 3.44 µM in the assay with SF-295 CNS. Besides, the GI50 in the assay with SF-539 CNS is 4.18 µM. Moreover, the TGI was 22.8 µM with A498 renal; 5.48 µM in the assay on CAKI-1 renal; 6.03 µM with HOP-92 NSCLC; 13.8 µM with IGROV1 ovarian; 33.9 µM in the assay with OVCAR-5 ovarian; 17.1 µM with SF-295 CNS. The molecule also came in with a concentration for total growth inhibition (TGI) in the assay on SF-539 CNS of 14.8 µM.

Take `O=C1C=CC2(O)OCC3C=C4O[C@@H]5OC6(CCCCC6)O[C@@H]5C4[C@@H]2[C@@H]13` (some centres undefined): the TGI in the assay with A498 renal was greater than 100 µM; with CAKI-1 renal, 48.9 µM; in the assay with HOP-92 NSCLC, 33.4 µM; with IGROV1 ovarian, greater than 100 µM; in the assay on K-562 leukemia it was 44.8 µM; with OVCAR-5 ovarian, greater than 100 µM. Moreover, the TGI in the assay with RPMI-8226 leukemia was 58.9 µM; in the assay on SF-295 CNS, greater than 100 µM.

For `C#Cc1cccc(NC(=O)/C=C\C(=O)O)c1`, the TGI in the assay on A498 renal, in the assay on CAKI-1 renal, in the assay on HOP-92 NSCLC, with K-562 leukemia, in the assay on OVCAR-5 ovarian and in the assay on RPMI-8226 leukemia was greater than 100 µM throughout. For the same molecule, the TGI in the assay with SF-295 CNS is greater than 100 µM.

On to `CC(C)(C)OC(=O)N[C@H]1CC(=O)c2ccccc2N(CC(=O)O)C1=O`, for which the TGI in the assay on CAKI-1 renal, in the assay with HOP-92 NSCLC, in the assay on IGROV1 ovarian, with SF-295 CNS and in the assay with SF-539 CNS was greater than 100 µM each time.

Consider `CCCC(O)[C@@]1(CC)CC(C)C(O)(C2(C)C[C@H](C)[C@@H](C(CC)C(=O)C(C)[C@@H](O)[C@H](C)C3OC(O)(C(CC)C(=O)O)[C@@H](C)C(O)C3CC)O2)O1` (some centres undefined), for which the TGI in the assay with A498 renal worked out at 2.15 µM; in the assay on CAKI-1 renal, 5.05 µM; in the assay with HOP-92 NSCLC, 1.75 µM; with IGROV1 ovarian, 9.81 µM; in the assay on OVCAR-5 ovarian, 5.35 µM; with SF-295 CNS, 4.91 µM. Besides, the TGI in the assay on SF-539 CNS was 2.76 µM.

Turning to `O=C1C=CC2(CCC23C=CC(=O)O3)O1` (centres undefined), the TGI in the assay with A498 renal, in the assay on IGROV1 ovarian, in the assay on K-562 leukemia, in the assay on OVCAR-5 ovarian, in the assay with RPMI-8226 leukemia and with SF-295 CNS was greater than 100 µM each time. In addition, in the assay with SF-539 CNS, the TGI was greater than 100 µM.

In the case of `[O-][n+]1c2cccc(O)c2[n+]([O-])c2cccc(O)c21`, the TGI with A498 renal is greater than 100 µM; with CAKI-1 renal it was greater than 100 µM; in the assay with HOP-92 NSCLC it was 97.5 µM; with IGROV1 ovarian, 69 µM; in the assay with K-562 leukemia, greater than 100 µM; in the assay with OVCAR-5 ovarian, greater than 100 µM. For the same molecule, the values for the TGI in the assay with RPMI-8226 leukemia, in the assay with SF-295 CNS and with SF-539 CNS were 83.3 µM, greater than 100 µM and greater than 100 µM, respectively.

For the molecule `O=c1c2ccccc2nc(-c2cccc(Cl)c2)n1NC1OC(CO)C(O)C(O)C1O` (centres undefined), the TGI with A498 renal, with CAKI-1 renal, in the assay with HOP-92 NSCLC, in the assay on IGROV1 ovarian, with K-562 leukemia and with OVCAR-5 ovarian was greater than 100 µM throughout. Also, the TGI with RPMI-8226 leukemia, in the assay on SF-295 CNS and in the assay with SF-539 CNS was greater than 100 µM each time.

Regarding `CCOC(=O)C1C(c2ccc(Br)cc2)N(Cc2ccccc2)C(c2ccc(Br)cc2)C(C(=O)OC)S1(=O)=O` (centres undefined), the TGI in the assay on CAKI-1 renal, in the assay on IGROV1 ovarian, in the assay on K-562 leukemia, in the assay with OVCAR-5 ovarian, in the assay with RPMI-8226 leukemia and in the assay on SF-295 CNS was greater than 100 µM throughout. The same molecule displayed a TGI with SR leukemia greater than 100 µM.

Regarding `Cc1cc(OC2OC(CO)C(O)C(O)C2O)ccc1O` (centres undefined), the TGI with A498 renal, in the assay with CAKI-1 renal, with HOP-92 NSCLC, in the assay on IGROV1 ovarian, in the assay on K-562 leukemia and in the assay with OVCAR-5 ovarian was greater than 100 µM in each case. For the same molecule, the TGI in the assay on RPMI-8226 leukemia, in the assay on SF-295 CNS and with SF-539 CNS was greater than 100 µM each time.

Consider `CCc1c(OC(C)=O)c2c(NC3OC(COC(C)=O)C(OC(C)=O)C(OC(C)=O)C3OC(C)=O)nc(SC)nc2oc1=O` (centres undefined), for which the concentration for total growth inhibition (TGI) with A498 renal, in the assay on CAKI-1 renal, in the assay with HOP-92 NSCLC, with IGROV1 ovarian, in the assay on K-562 leukemia and with OVCAR-5 ovarian was greater than 100 µM throughout. Moreover, the TGI in the assay on RPMI-8226 leukemia, in the assay with SF-295 CNS and in the assay on SF-539 CNS was greater than 100 µM throughout.
